Data set [1] in a line: Peak absorption wavelength, peak emission wavelength and fluorescent quantum yield. The class given is physicochemical. The text has this: Table 2 provides a peak absorption wavelength (λabs maximum), peak emission wavelength (λem maximum), a fluorescent quantum yield (ΦF), and a synthesis yield for the various compounds. The synthesis yield is based on the synthetic pathway illustrated in FIG. 1.

A short description of data set [2]: Emission spectrum on exposure to varying amounts of FeCl3. Particulars: for total red-shift in peak emission wavelength: at saturation with Fe^3+. The protocol:
Two substituted chromones (Compound 11 and Compound 20) were dissolved in methanol and exposed to varying amounts of FeCl3 (i.e., Fe^3+). FIG. 4 illustrates the shift in emission spectrum of Compound 11 with increasing amounts of Fe^3+ ions. With about 10 equivalents of Fe^3+ ions, the shift in emission spectrum is saturated, with a total of about a 30 nm red-shift in peak emission wavelength. FIG. 5 illustrates the shift in emission spectrum of Compound 20 with increasing amounts of Fe^3+ ions. With about 10 equivalents of Fe^3+ ions, the shift in emission spectrum is saturated, with a total of about a 50 nm red-shift in peak emission wavelength.
Compound 11 was dissolved in various solvents and then exposed to varying amounts of FeCl3 (i.e., Fe^3+).
(§1) Compound 11 was dissolved in methanol and then exposed to varying amounts of FeCl3 (i.e., Fe^3+) or (NH4)2Fe(SO4)2.6H2O (i.e., Fe^2+). […] Therefore, Compound 11 may be used to detect Fe^3+ while in the presence of Fe^2+.

Data set [3] can be described thus: Emission spectrum on exposure to varying amounts of (NH4)2Fe(SO4)2.6H2O. Conditions: methanol; FIG. 6. As for the experimental part:
as §1

Data set [4] in a line: Emission spectrum on exposure to varying amounts of lead nitrate. The protocol: Compound 20 was dissolved in methanol and then exposed to varying amounts of […] (i.e., Pb^2+). […] Therefore, a kit, method, system, or the like may utilize a specific solvent system for detection of lead or other Ions. Alternatively, and especially where the metal ion concentration is unknown, a kit, method, system, or the like may utilize a series of solvent systems in parallel to determine a concentration of metal ions.
A 5 μM sample of Compound 25 in 3:1 tetrahydrofuran:methanol or 2:1 tetrahydrofuran:methanol was prepared and exposed to varying amounts of Pb(NO3)2 (i.e., Pb^2+) dissolved in deionized water.

Marks after values point to notes of the source that are not given here.

As to `COC(=O)C(C)(C)C1Oc2ccc(OC)cc2C(=O)/C1=C\O` (stereo not drawn) [Compound 11, (Z)-methyl-2-(3-(hydroxymethylene)-6-methoxy-4-oxochroman-2-yl)-2-methylpropanoate], in data set [1] (solvent dichloromethane), the ΦF is 20* %, the λabs maximum was found to be 383 nm and the λem maximum is 482 nm. In data set [2] (1:1 methanol:water as solvent), the “red-shift in peak emission wavelength” value is reported as “still exhibits a red-shift in peak emission wavelength”. Further, in data set [2] (methanol), the “amount of Fe^3+ ions at which the shift in emission spectrum is saturated” value is recorded as “about 10 equivalents” and the “total red-shift in peak emission wavelength” value is recorded as roughly 30 nm. For the same molecule, in data set [2] (methanol, FIG. 4), the “intensity change of peak emission with increasing metal ion concentration” value is on record as “intensity decrease” and the “shift of peak emission wavelength” value is given as “significant red-shift”. For the same molecule, the “red-shift in peak emission wavelength” value in data set [2] (polar aprotic solvents: tetrahydrofuran, acetonitrile, acetone) is on record as “did not exhibit an appreciable red-shift”. Also, in data set [2] (polar protic solvents: water, methanol, mixtures thereof), the “red-shift in peak emission wavelength” value is given as “exhibited an appreciable red-shift”. For the same molecule, in data set [3], the “intensity change of peak emission with increasing metal ion concentration” value is listed as “intensity decrease” and the “shift of peak emission wavelength” value is “does not exhibit appreciable shift”.
Turning to `CCc1ccc2c(c1)C(=O)/C(=C\NS(=O)(=O)c1ccc(C)cc1)C(C(C)(C)C(=O)OC)O2` (stereo not drawn) [Compound 20, (Z)-methyl 2-(6-ethyl-3-((4-methylphenylsulfonamido)methy-lene)-4-oxochroman-2-yl)-2-methylpropanoate], the ΦF in data set [1] (solvent acetonitrile) is 16** %; in data set [1] (solvent cyclohexane) it was 30*** %; in data set [1] (solvent dichloromethane), 73* %. The results for the λabs maximum in data set [1] (solvent acetonitrile), in data set [1] (solvent cyclohexane) and in data set [1] (solvent dichloromethane) were 369 nm, 364 nm and 370 nm, respectively. For the same molecule, the values for the λem maximum in data set [1] (solvent acetonitrile), in data set [1] (solvent cyclohexane) and in data set [1] (solvent dichloromethane) were 496 nm, 481 nm and 490 nm, respectively. For the same molecule, the “red-shift in peak emission wavelength” value in data set [2] (1:1 methanol:water as solvent) is recorded as “does not”. The “amount of Fe^3+ ions at which the shift in emission spectrum is saturated” value in data set [2] (methanol) was “about 10 equivalents”. The “total red-shift in peak emission wavelength” value in data set [2] (methanol) is roughly 50 nm. Further, the entries for the “amount of Pb^2+ at max shift in peak emission wavelength” value in data set [4] (1:1 tetrahydrofuran:methanol) and in data set [4] (3:1 tetrahydrofuran:methanol) were “about 5 equivalents” and “about 3 equivalents”, respectively. Further, the “shift in peak emission wavelength” value in data set [4] (THF alone) is listed as “no appreciable shift in peak emission wavelength”. Moreover, the “amount of Pb^2+ at which the shift in peak emission wavelength maxes out” value in data set [4] (methanol) is 10 equivalents. Besides, the “shift in peak emission wavelength at 1 equivalent Pb^2+” value in data set [4] (methanol) was “no appreciable shift”; in data set [4] (mixed tetrahydrofuran/methanol), “appreciable shift”.

Values taken from US10444149B2, “Fluorescent compounds as sensing agents” (OHIO NORTHERN UNIVERSITY, priority 2016, dated 2019).
